Earlier results in patent publication US20240058323A1, “PHARMACEUTICAL COMPOSITION CONTAINING PYRROLOQUINOLINE QUINONE TRILITHIUM SALT NONAHYDRATE COMPOUND, CAPSULE, AND PREPARATION METHOD THEREFOR” (SHANGHAI RAISING PHARMACEUTICAL CO., LTD, priority 2020, published 2024).
Where a name gives a salt, the structure may show the parent alone.

Details: crystalline nonahydrate API

## O=C(O)c1cc(C(=O)O)c2c(n1)C(=O)C(=O)c1cc(C(=O)O)[nH]c1-2 [4,5-dioxo-4,5-dihydro-1H-pyrrolo[2,3-f]quinoline-2,7,9-tricarboxylic acid lithium salt nonahydrate compound]
  temperature above which water is rapidly and irreversibly lost: higher than 60 °C
